Data taken from US5084082A, “Soybean plants with dominant selectable trait for herbicide resistance” (priority 1990, dated 1992).

Key:
[1] = test system: mutants that have heritable sulfonylurea tolerance; experiment: Pilot studies, threshold concentration in hydroponic system; format: in vivo, soybean; settings: sulfonylurea tolerant mutants, 100 mg/L used to irrigate the hydroponic system
From the text: (§1) The same sulfonylurea concentrations would select only highly resistant plants.

[2] = test system: wild type soybeans; experiment: as above; format: in vivo, soybean; settings: 100 mg/L used to irrigate the hydroponic system
From the text: as §1

[3] = test system: Acetolactate synthase (ALS) from leaves of W23; experiment: Test D ALS assay with chlorsulfuron; format: biochemical, soybean
Procedure: (§2) Acetolactate synthase (ALS) was extracted from leaves of soybean plants growing vegetatively. The leaves were homogenized in 4 volumes of buffer containing 100 mM hepes (pH 7.5), 1 mM sodium pyruvate, 0.5 mM magnesium chloride, 0.5 mM thiamine pyrophosphate, […], 10% glycerol, 5% PVPP, and 0.2% mercaptoethanol. The homogenate was filtered through cheese cloth and centrifuged at 20,000 g for 20 min. ALS was precipitated from the supernatant with ammonium sulfate. The enzyme was collected between 20 and 60% saturation by centrifugation at 20,000 g for 20 min. The pellet was resuspended in buffer containing 100 mM Hepes, 1 mM sodium pyruvate, and 0.5 mM magnesium chloride, and desalted on PD-10 columns (Pharmacia) equilibrated with the same buffer. ALS assays were carried out in a final volume of 0.5 mL at 30° C. The final reaction mixture contained 100 mM Hepes (pH 7.5), 1 mM magnesium chloride, 60 mM sodium pyruvate, 0.4 mM thiaminepyrophosphate, […], and various concentrations of chlorsulfuron. The assays were initiated with the addition of enzyme ([…]) and terminated with the addition of […] of 6N sulfuric acid. The acidified reaction mixture was heated to 60° C. for 15 min, after which 0.5 mL of 0.5% (W/V) creatine and 0.5 mL of 5% (W/V) napthol (freshly prepared in 2.5 N sodium hydroxide) were added. The reaction mixtures were heated for an additional 15 min at 60° C., and the absorbance was read at 525 nm. Data are expressed in terms of % control (minus Compound 1) activity and are the average of two replications. Fisher's least significant difference (LSD) value (at the 95% level of confidence) was calculated for each Compound 1 concentration to determine the significance of genotype mean differences.

[4] = test system: Acetolactate synthase (ALS) from leaves of W19; experiment: Test D ALS assay with chlorsulfuron; format: biochemical, soybean
Procedure: as §2

[5] = test system: Acetolactate synthase (ALS) from leaves of W28; experiment: Test D ALS assay with chlorsulfuron; format: biochemical, soybean
Procedure: as §2

[6] = test system: Acetolactate synthase (ALS) from leaves of W20; experiment: Test D ALS assay with chlorsulfuron; format: biochemical, soybean
Procedure: as §2

[7] = test system: Acetolactate synthase (ALS) from leaves of Williams 82; experiment: Test D ALS assay with chlorsulfuron; format: biochemical, soybean
Procedure: as §2

[8] = test system: ALS of W4-6; experiment: In vitro ALS activity of leaf tissue in the presence of Compounds 8 and 9; format: biochemical, soybean; settings: W4-6, 100 ppb
From the text: (§3) At approximately 1 month after transplantation, some of the selections appeared much healthier than others. For example, W4-4, W4-6, W6-1, W6-2, W6-4, W23-10, and W23-11 recovered very well from the seed soak treatment with Compound 8. These plants were suspected of having a higher level of ALS resistance to Compound 8 than did the parental material from which they were derived. The applicant was also interested to see if any of these selections were cross resistant to an imidazolinone herbicide such as Compound 9. To test this hypothesis, leaf tissue of the one-month-old M2 plants was sampled and assayed in vitro for ALS activity in the presence of Compound 8 and Compound 9. The ALS assay procedure was essentially identical to the previously described ALS assay except that the herbicide concentrations tested were 100 ppb Compound 8 and 10 ppm Compound 9. Williams and mutant W20 soybean plants were also assayed as control genotypes for comparison. Williams contains no genes conferring the ALS-based sulfonylurea resistance while W20 is homozygous for a single mutation conferring ALS-based sulfonylurea resistance.
as §2

[9] = test system: ALS of W23-10; experiment: as above; format: biochemical, soybean; settings: W23-10, 100 ppb
From the text: as §3, §2

[10] = test system: ALS of W23-11; experiment: as above; format: biochemical, soybean; settings: W23-11, 100 ppb
From the text: as §3, §2

[11] = test system: ALS of W4-5; experiment: as above; format: biochemical, soybean; settings: W4-5, 100 ppb
From the text: as §3, §2

[12] = test system: ALS of W6-4; experiment: as above; format: biochemical, soybean; settings: W6-4, 100 ppb
From the text: as §3, §2

[13] = test system: ALS of W20; experiment: as above; format: biochemical, soybean; settings: W20, 100 ppb
From the text: as §3, §2

[14] = test system: ALS of W6-2; experiment: as above; format: biochemical, soybean; settings: W6-2, 100 ppb
From the text: as §3, §2

[15] = test system: ALS of W4-4; experiment: as above; format: biochemical, soybean; settings: W4-4, 100 ppb
From the text: as §3, §2

[16] = test system: ALS of W6-1; experiment: as above; format: biochemical, soybean; settings: W6-1, 100 ppb
From the text: as §3, §2

[17] = test system: ALS of Williams; experiment: as above; format: biochemical, soybean; settings: 100 ppb
From the text: as §3, §2

[18] = test system: W20 seedlings; experiment: Large-scale hydroponic screening pilot with Compound 8; format: in vivo, soybean; settings: 300 ppb used to irrigate the hydroponic system
From the text: The first screening protocol used was identical to the "Large-Scale Hydroponic Screening System" described previously except for the fact that 300 ppb of Compound 8 was used as the selective agent instead of 100 ppb of Compound 1. […] Rare seedlings developing true leaves became very obvious against the background of inhibited seedlings.

`COc1nc(C)nc(NC(=O)NS(=O)(=O)c2ccccc2Cl)n1` [Compound 1, 2-chloro-N-[[(4-methoxy-6-methyl-1,3,5-triazin-2-yl)amino]carbonyl]benzenesulfonamide] was tested, and the leaf formation [1] was “allow unifoliolate (but not trifoliolate) formation”, the “leaf and root development” value [2] was “consistently stunt or inhibit leaf and root development” and the “uninhibited ALS activity (% of control)” value ([3]; W23, chlorsulfuron 10 mg/l-l) was 55.3 % of control. For the same compound, the “uninhibited ALS activity (% of control)” value ([3]; W23, chlorsulfuron 20 mg/l-l) was 46.3 % of control, the “uninhibited ALS activity (% of control)” value ([3]; W23, chlorsulfuron 50 mg/l-l) was 38.9 % of control and the “uninhibited ALS activity (% of control)” value ([3]; W23, chlorsulfuron 100 mg/l-l) was 37.4 % of control. The “uninhibited ALS activity (% of control)” value ([3]; W23, chlorsulfuron 200 mg/l-l) was 34.0 % of control, the “uninhibited ALS activity (% of control)” value ([4]; W19, chlorsulfuron 10 mg/l-l) was 60.7 % of control and the “uninhibited ALS activity (% of control)” value ([4]; W19, chlorsulfuron 20 mg/l-l) was 54.5 % of control. The “uninhibited ALS activity (% of control)” value ([4]; W19, chlorsulfuron 50 mg/l-l) was 48.7 % of control, the “uninhibited ALS activity (% of control)” value ([4]; W19, chlorsulfuron 100 mg/l-l) was 45.7 % of control and the “uninhibited ALS activity (% of control)” value ([4]; W19, chlorsulfuron 200 mg/l-l) was 40.8 % of control. For the same compound, the “uninhibited ALS activity (% of control)” value ([5]; W28, chlorsulfuron 10 mg/l-l) was 54.6 % of control, the “uninhibited ALS activity (% of control)” value ([5]; W28, chlorsulfuron 20 mg/l-l) was 46.1 % of control and the “uninhibited ALS activity (% of control)” value ([5]; W28, chlorsulfuron 50 mg/l-l) was 42.8 % of control. For the same compound, the “uninhibited ALS activity (% of control)” value ([5]; W28, chlorsulfuron 100 mg/l-l) was 36.4 % of control, the “uninhibited ALS activity (% of control)” value ([5]; W28, chlorsulfuron 200 mg/l-l) was 34.3 % of control and the “uninhibited ALS activity (% of control)” value ([6]; W20, chlorsulfuron 10 mg/l-l) was 50.6 % of control. For the same compound, the “uninhibited ALS activity (% of control)” value ([6]; W20, chlorsulfuron 20 mg/l-l) was 35.2 % of control, the “uninhibited ALS activity (% of control)” value ([6]; W20, chlorsulfuron 50 mg/l-l) was 31.1 % of control and the “uninhibited ALS activity (% of control)” value ([6]; W20, chlorsulfuron 100 mg/l-l) was 20.8 % of control. For the same compound, the “uninhibited ALS activity (% of control)” value ([6]; W20, chlorsulfuron 200 mg/l-l) was 19.0 % of control, the “uninhibited ALS activity (% of control)” value ([7]; WM 82, chlorsulfuron 10 mg/l-l) was 41.1 % of control and the “uninhibited ALS activity (% of control)” value ([7]; WM 82, chlorsulfuron 20 mg/l-l) was 26.3 % of control. For the same compound, the “uninhibited ALS activity (% of control)” value ([7]; WM 82, chlorsulfuron 50 mg/l-l) was 15.0 % of control, the “uninhibited ALS activity (% of control)” value ([7]; WM 82, chlorsulfuron 100 mg/l-l) was 11.1 % of control and the “uninhibited ALS activity (% of control)” value ([7]; WM 82, chlorsulfuron 200 mg/l-l) was 8.5 % of control.

With `COC(=O)c1cccnc1S(=O)(=O)NC(=O)Nc1nc(OC)cc(OC)n1` [Compound 8, Methyl 2-[[[[(4,6-dimethoxy-2-pyrimidinyl)amino]carbonyl]amino]sulfonyl]-3-pyridinecarboxylate] the “uninhibited ALS activity as % of control” value [8] was 4.0 % of control, the “uninhibited ALS activity as % of control” value [9] was 7.9 % of control and the “uninhibited ALS activity as % of control” value [10] was 3.8 % of control. For the same compound, the “uninhibited ALS activity as % of control” value [11] was 7.1 % of control, the “uninhibited ALS activity as % of control” value [12] was 10.5 % of control and the “uninhibited ALS activity as % of control” value [13] was 10.7 % of control. The “uninhibited ALS activity as % of control” value [14] was 9.7 % of control, the “uninhibited ALS activity as % of control” value [15] was 37.6 % of control and the “uninhibited ALS activity as % of control” value [16] was 8.5 % of control. The “uninhibited ALS activity as % of control” value [17] was -0.3 % of control and the seedling development [18] was “would not develop true leaves”.
